What all share (format): in vivo
Experiment [1] has as its system Musca domestica. The experiment can be described thus: Filter paper/sucrose bait death rate test on Musca domestica (Test Example 5). To be noted: female imagoes of Musca domestica, 0.7 ml on filter paper, after 24 hours. How it is done: A filter paper having a diameter of 5.5 cm was spread on the bottom of a polyethylene cup having the same diameter and 0.7 ml of the test drug solution was added dropwise onto the filter paper, and 30 mg of sucrose was uniformly placed as bait.
Into the polyethylene cup, 10 female imagoes of Musca domestica were released, and the cup was sealed with a lid. After 24 hours, the life and death of Musca domestica was examined, and the death rate was calculated. The death rate was calculated by the following equation.
Death rate (%)=(Number of dead insects/Number of tested insects)×100

For experiment [2], the system named is Blattella germanica. The experiment can be described thus: Knockdown spray test on Blattella germanica, 0.1% w/v oil formulation (Test Example 2). To be noted: topical, 0.25 h, active ingredient 0.1% w/v, 1.5 ml sprayed, within 15 minutes, read-out: knockdown rate of the test insects within 15 minutes. How it is done:
Ten Blattella germanica (5 males and 5 females) were released in a test container (8.75 cm in diameter, 7.5 cm in height, and the bottom made of 16 mesh metallic wire) with the inner wall on which butter was applied, and the container was placed on the bottom of a test chamber (bottom: 46 cm×46 cm, height: 70 cm). From a height of 60 cm above the upper surface of the container, 1.5 ml of the test drug solution was sprayed using a spray gun (a spraying pressure of 0.42 kg/cm^2). Thirty seconds after spraying, the container was taken out from the test chamber, and after 2 minutes, 5 minutes and 15 minutes, the number of knocked-down insects was counted to obtain a knockdown rate. The knockdown rate was calculated by the following equation.
Knockdown Rate (%)=(Number of Knocked-down Insects/Number of Tested Insects)×100

For experiment [3], the system named is Culex pipiens pallens. The experiment can be described thus: Knockdown spray test on adult Culex pipiens pallens (Test Example 4). To be noted: topical, 0.25 h, active ingredient 0.1% w/v, 0.5 ml sprayed, within 15 minutes, read-out: knockdown rate of the test insects within 15 minutes. The method, boiled down: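 Knockdown counts were taken 2, 5 and 15 min after spraying and expressed as percent of the 10 adults tested. For the spray, 0.5 ml of solution was applied by spray gun (0.4 kg/cm^2) from 30 cm above a gauze-covered cup in a test chamber; the cup was taken out right after spraying.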

Molecules are shown by their SMILES.

As for `O=C(NCC1CCOC1)c1cc(COCc2ccccc2Cl)on1` (stereo not shown) [(66), N-(tetrahydrofuran-3-ylmethyl)-5-(2-chlorobenzyloxymethyl)isoxazole-3-carboxamide], the pest or weed control at 500 ppm in experiment [1] was at least 90%. Moreover, the pest or weed control at 0.1 % strength in experiment [2] and in experiment [3] was at least 80% each time.

In the case of `O=C(NCC1CCOCC1)c1cc(COCc2ccccc2Cl)on1` [(67), N-(tetrahydropyran-4-ylmethyl)-5-(2-chlorobenzyloxymethyl)isoxazole-3-carboxamide], the pest or weed control at 500 ppm in experiment [1] is at least 90%. Besides, the pest or weed control at 0.1 % strength in experiment [2] and in experiment [3] was at least 80% in each case.

In turn, `O=C(NCC1CCOC1)c1cc(COCc2cccc(Cl)c2)on1` (stereo not shown) [(68)] had a pest or weed control at 500 ppm in experiment [1] of at least 90%. The pest or weed control at 0.1 % strength in experiment [2] and in experiment [3] was at least 80% in each case.

Turning to `Cc1cccc(COCc2cc(C(=O)NCC3CCOC3)no2)c1` (stereo not shown) [(82), N-(tetrahydrofuran-3-ylmethyl)-5-(3-methylbenzyloxymethyl)isoxazole-3-carboxamide], the pest or weed control at 500 ppm in experiment [1] was at least 90%. In addition, the pest or weed control at 0.1 % strength in experiment [2] and in experiment [3] was at least 80% in each case.

As to `COc1cccc(COCc2cc(C(=O)NCC3CCOC3)no2)c1` (stereo not shown) [(84), N-(tetrahydrofuran-3-ylmethyl)-5-(3-methoxybenzyloxymethyl) isoxazole-3-carboxamide], the pest or weed control at 500 ppm in experiment [1] is at least 90%. The pest or weed control at 0.1 % strength in experiment [2] and in experiment [3] was at least 80% each time.

In turn, `O=C(NCC1CCOC1)c1cc(COCc2cccc(COCc3ccccc3)c2)on1` (stereo not shown) [(121), N-(tetrahydrofuran-3-ylmethyl)-5-(3-benzyloxymethylbenzyloxymethyl)isoxazole-3-carboxamide] returned a pest or weed control at 500 ppm in experiment [1] of at least 90%. For the same molecule, the pest or weed control at 0.1 % strength in experiment [2] and in experiment [3] was at least 80% each time.

Molecule `O=C(NCC1CCOCC1)c1cc(COc2cccc(F)c2)on1` [(195), N-(tetrahydropyran-4-ylmethyl)-5-(3-fluorophenoxymethyl)isoxazole-3-carboxamide] displayed a pest or weed control at 500 ppm in experiment [1] of at least 90%. For the same molecule, the pest or weed control at 0.1 % strength in experiment [2] and in experiment [3] was at least 80% in each case.

In experiment [1], `O=C(NCC1CCOC1)c1cc(COCc2cc(F)cc(F)c2)on1` (stereo not shown) [(266), 14-(tetrahydrofuran-3-ylmethyl)-5-(3,5-difluorobenzyloxymethyl)isoxazole-3-carboxamide] yielded a pest or weed control at 500 ppm of at least 90%. Moreover, the pest or weed control at 0.1 % strength in experiment [2] and in experiment [3] was at least 80% throughout.

`O=C(NCC1CCOC1)c1cc(COCc2cc(F)c(F)c(F)c2)on1` (stereo not shown) [(267), N-(tetrahydrofuran-3-ylmethyl)-5-(3,4,5-trifluorobenzyloxymethyl)isoxazole-3-carboxamide] showed a pest or weed control at 500 ppm in experiment [1] of at least 90%. In addition, the pest or weed control at 0.1 % strength in experiment [2] and in experiment [3] was at least 80% each time.

As for `O=C(NCC1CCOC1)c1cc(COCc2cc(F)cc(Cl)c2)on1` (stereo not shown) [(268), N-(tetrahydrofuran-3-ylmethyl)-5-(3-chloro-5-fluorobenzyloxymethyl)isoxazole-3-carboxamide], in experiment [1], the pest or weed control at 500 ppm is at least 90%. The pest or weed control at 0.1 % strength in experiment [2] and in experiment [3] was at least 80% each time.

Molecule `CC1(CNC(=O)c2cc(COCc3ccc4ccccc4c3)on2)COC1` [(333), N-(3-methyloxetan-3-ylmethyl)-5-(2-naphthylmethoxymethyl)isoxazole-3-carboxamide] showed a pest or weed control at 500 ppm in experiment [1] of at least 90%. Further, the pest or weed control at 0.1 % strength in experiment [3] was at least 80%.

Molecule `CC1(C)CC(NC(=O)c2cc(COCc3ccccc3)on2)CCO1` (stereo not shown) [(335), N-(2,2-dimethyltetrahydropyran-4-yl)-5-benzyloxymethylisoxazole-3-carboxamide] yielded a pest or weed control at 500 ppm in experiment [1] of at least 90%. Besides, the pest or weed control at 0.1 % strength in experiment [3] was at least 80%.

These data come from patent US20150344466A1 (SUMITOMO CHEMICAL COMPANY, LIMITED, priority 2013, published 2015).
